Assay results as given in patent publication US7045531B1, “Composition comprising a metal chelator and a method of treating amyloidosis by administering the metal chelator” (The General Hospital Corporation, priority 1997, dated 2006).
Like-named read-outs stand apart in the source and are kept apart here.

Columns and labels:
[1] = system: Cu^2+-induced Aβ1-40 or Aβ1-42 SDS-resistant polymers; assay: Dissolution of in vitro generated SDS-resistant Aβ polymers; format: biochemical, human; settings: polymers generated at pH 7.4
[2] = target: Aβ1-40 (Homo sapiens, UniProt P05067); settings: pH 7.4; EDTA chelation
Chain of Aβ1-40 (P05067 672-711 limits assumed): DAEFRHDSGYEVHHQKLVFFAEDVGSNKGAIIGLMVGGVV

[3] = Aβ metal-capture ELISA, competition analysis of binding to Cu^2+; settings: pH 7.4; read-out: Kd, high affinity saturable Cu^2+ binding site
Description: Aβ1-40 (1.5 ng/well) was incubated (37° C., 2 hr) in the wells of Cu^2+ coated microtiter plates (Xenopore, Hawthorne, N.J.) with increasing concentrations of Cu^2+ (1–100 nM) as described by Moir et al., Journal of Biological Chemistry (submitted). Remaining ligand binding sites on well surfaces were blocked with 2% gelatin in tris-buffered saline (TBS) (3 hr at 37° C.) prior to overnight incubation at room temperature with the anti-Aβ mAb 6E10 (Senetek, Maryland Heights, Mich.). Anti-mouse IgG coupled to horseradish peroxidase was then added to each well and incubated for 3 hr at 37° C. Bound antibodies were detected by a 30 minute incubation with stable peroxidase substrate buffer/3,3′,5,5′-Tetramethyl benzidine (SPSB/TMB) buffer, followed by the addition of 2 M sulfuric acid and measurement of the increase in absorbance at 450 nm.
All assays were performed in triplicate and are means±SD, n=3. […] The affinity of Aβ for Cu^2+ is higher than that for Zn^2+ (Bush, A. I., et al., J. Biol. Chem. 269: 12152 (1994)). […] This is supported by the fact that there is both a pH sensitive and insensitive interaction with different metal ions.

[4] = SDS-resistant polymerization of Aβ peptides with Cu^2+ (Western blot, image analysis); format: biochemical; settings: after 5 d; for conversion of the monomer to dimer / conversion of the monomer to trimer: Cu^2+ 30 μM
Description: Following incubation (37° C.), aliquots of each reaction (2 ng peptide) were collected at 0 d, 1 d, 3 d and 5 d and western blotted using anti-Aβ monoclonal antibody 8E10 (FIG. 9). Migration of the molecular size markers are indicated (kDa). […] It should be noted that other means of visualizing and/or determining the presence or absence of polymerization other than western blot analysis may be used. Such other means include but are not limited to density sedimentation by centrifugation of the samples.
As above, electronic images captured using the Fluoro-S Image Analysis System (Bio-Rad, Hercules, Calif.) were analyzed using Multi-Analyst Software (Bio-Rad, Hercules, Calif.).
(0–30 μM) at pH 7.4 and 6.6 and the samples analyzed by Western blot and the signal quantitated using the Fluoro-S Image Analysis System (Bio-Rad, Hercules, Calif.) as previously described.

[5] = Metal reduction assay, Cu^2+ (BC indicator); format: biochemical; settings: Cu^2+ 10 μM; PBS pH 7.4; 1 hr, 37° C.
Description: (§1) Polypeptides (10 μM) or Vitamin C (100 μM), metal ions (10 μM, Fe(NO3)3 or Cu(NO3)2), and reduced metal ion indicators, bathophenanthrolinedisulfonic acid (BP, for Fe^2+, Sigma, 200 μM) or bathocuproinedisulfonic acid (BC, for Cu^+, Sigma, […]), were coincubated in phosphate buffered saline (PBS), pH 7.4, for 1 hr at 37° C. The metal ion solutions were prepared by direct dilution in the buffer from their aqueous stocks purchased from National Institute of Standards and Technology (NIST). Absorbances were then measured at 536 nm (Fe^2+-BP complex) and 483 nm (Cu^+-BC complex), respectively, using a 96-well plate reader (SPECTRAmax 250, Molecular Devices, Calif.). In control samples, both metal ion and indicator were present to determine the background buffer signal. As a further control, both metal ion and peptide were present in the absence of indicator to estimate the contribution of light scattering due to turbidity to the absorbance reading at these wavelengths. The net absorbances (ΔA) at 536 nm or 483 nm were obtained by deducting the absorbances from these controls from the absorbances generated by the peptide and metal in the presence of the respective indicator.

[6] = Metal reduction assay, Fe^3+ (BP indicator); format: biochemical; settings: Fe^3+ 10 μM; PBS pH 7.4; 1 hr, 37° C.
Description: as §1, with “The metal reduction assay was performed using a 96-well microtiter plate (Costar) based upon a modification of established protocols (Landers, J. W., et al., Amer. Clin. Path. 29:590 (1958); Landers. J. W. et al., Clinica Chimica Acta 3:329 (1958)). Polypeptides” for “Polypeptides”
The concentrations of reduced metal ions (Fe^2+ or Cu^+) were quantified based on the formula: Fe^2+ or Cu^+ (˜M)=A*10^6/(L*M), where L is the measured equivalent vertical pathlength for a well of 300 μL volume as described in the instrument's specifications manual (0.856 cm for Fe^2+; 1.049 cm for Cu^+); M is the known molecular absorbance (M^−1 cm^−1) which is 7124 (for Fe^2+-BP complex) or 2762 (for Cu^+-BC complex).

[7] = cited from earlier work; for Kd: physiological pH
[8] = target: T1, Aβ1-42 (Homo sapiens, UniProt P05067); assay: Effect of metal chelators on H2O2 production from Aβ1-42; format: biochemical; settings: chelator 200 μM; 1 μM Fe^3+
T1 sequence (P05067 672-713 limits assumed): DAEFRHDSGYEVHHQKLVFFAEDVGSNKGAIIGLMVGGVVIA

[9] = system: AD; settings: twice daily deep intramuscular injections; cited from earlier work
[10] = target: T1, Aβ1-42; assay: Modulation of SDS-resistant polymerization of Aβ1-42; format: biochemical; settings: TCEP 100 μM; with and without Cu^2+; over 3 days
Description: Solution concentrations of metal ion and H2O2 were 30 μM and 100 μM, respectively. […] Argon was continuously bubbled through the buffer for 2 h (at 20° C.) before the remainder of the incubation components were added.
It is possible that the decreased polymerization may be due to chelation of Cu^2+ by BC, however given the low binding affinity of BC for Cu^2+ compared with Aβ, it seems likely that the chelation of […] by BC prevents it from inducing SDS-resistant Aβ polymerization. Therefore, Aβ may undergo a hydroxyl radical modification that promotes its assembly into SDS-resistant polymers.

[11] = TBARS assay of OH. production by peptides; format: biochemical; settings: 1 μM Fe^3+ or Cu^2+
Description: The Thiobarbituric Acid-Reactive Substance (TBARS) assay for incubation mixtures with Fe^3+ or Cu^2+ was performed in a 96-well microtiter format modified from established protocols (Gutteridge et al. Biochim. Biophys. Acta 759: 38–41 (1983)). Aβ peptide species (10 μM) or Vitamin C (100 μM), were incubated with Fe^3+ or Cu^2+ (1 μM) and deoxyribose (7.5 mM, Sigma) in PBS, pH 7.4. Following incubation (37° C., 1 hour), glacial (17 M) acetic acid and 2-thiobarburic acid (1%, w/v in 0.05 M NaOH, Sigma) were added and heated (100° C., 10 min). The final mixtures were placed on ice for 1–3 minutes before absorbances at 532 nm were measured. The net absorbance change for each sample were obtained by deducting the absorbance from a control sample consisting of identical chemical components except for the Vitamin C or Aβ peptides.

[12] = Cu^+ generation / metal reduction (Example 2); format: biochemical; settings: 10 μM in PBS; Cu^2+ 10 μM; 30 minutes, 37° C.
Description: This method is modified from a protocol assaying serum copper and iron (Landers, J. W., et al., Amer. J. Clin. Path. 29:590 (1958)). It is based on the fact that there are optimal visible absorption wavelengths of 483 nm and 535 nm for Cu^+ complexed with bathocuproinedisulfonic (BC) anion and Fe^2+ coordinated by bathophenanthrolinedisulfonic (BP) anion, respectively.
Aβ (10 μM in PBS, pH 7.4 or 6.8, as shown) was incubated for 30 minutes (37° C.) in the presence of Cu^2+ 10 μM±Zn^2+ 10 μM). Cu^+ levels (n=3, ±SD) were assayed against a standard curve.

O=C(O)CN(CCN(CC(=O)O)CC(=O)O)CC(=O)O [EDTA, ethylenediaminetetra acetic acid]
effect on amount of Aβ1-40 or Aβ1-42 SDS-resistant polymers [1]: less effective | reversibility of Cu^2+-induced Aβ1-40 aggregation [2]: reversible

Aβ1-40: synthetic human Aβ1-40 peptide
Kd [3]: 0.0009 µM | conversion of the monomer to dimer ([4]; pH 6.6): 29% | conversion of the monomer to trimer ([4]; pH 6.6): 2% | conversion of the monomer to dimer ([4]; pH 7.4): 42% | conversion of the monomer to trimer ([4]; pH 7.4): 9% | peptide converted to the SDS-resistant dimer ([4]; no metal, pH 6.6, 7.4 or 9.0): Less than 4% | available Cu^2+ reduced [5]: 60% | available Fe^3+ reduced [6]: 12% | Kd ([7]; read-out: KD, high affinity zinc binding, 1:1 (Zn^2+:Aβ)): 0.107 µM | Kd ([7]; read-out: KD, low affinity zinc binding, 2:1 stoichiometry): 5.2 µM

CC(=O)N(O)CCCCCNC(=O)CCC(=O)N(O)CCCCCNC(=O)CCC(=O)N(O)CCCCCN [DFO, Desferrioxamine]
effect on H2O2 formation by Aβ1-42 [8]: no effect | side effects [9]: anaemia

Cl.O=C(O)CCP(CCC(=O)O)CCC(=O)O [TCEP, Tris(2-Carboxyethyl)-Phosphine Hydrochloride]
effect on level of polymerization of Aβ1-42 [10]: significantly reduced the level of polymerization

rat Aβ1-40: Rat/mouse Aβ1-40 with substitutions R5G, Y10F, H13R (DAEFGHDSGFEVRHQKLVFFAEDVGSNKGAIIGLMVGGVV; Amyloid-beta protein 40; UniProt P12023 672-711, looked up, fragment)
available Cu^2+ reduced [5]: reduced no Cu^2+ | available Fe^3+ reduced [6]: did not significantly facilitate the reduction of Fe^3+ | OH. generation [11]: did not generate OH. | Cu^2+ reduction / redox reactivity [12]: does not manifest the redox reactivity | KA, zinc, single binding site [7]: 3.8 µM
